Reference: patent US8877785B2, “Methods and compositions for enhancing sensitivity of cytotoxic drugs with timely combinatorial therapy with carboxyamidotriazole orotate” (Tactical Therapeutics Inc, priority 2009, dated 2014)

How the values were obtained:
[1] = Body weight loss and deaths in LOX IMVI tumor-bearing athymic NCr-nu/nu mice (experiment TTI-6A); format: in vivo
Source text: The purpose of the experiment TTI-6A was to evaluate the antitumor activity of CTO when administered in combination with temozolomide against subcutaneously (SC)-implanted human LOX IMVI melanoma xenografts in female, athymic NCr-nu/nu mice. Female six-week-old athymic NCr-nu/nu mice were purchased from Charles River Laboratories (Wilmington, Mass.). Human LOX IMVI melanoma cells were maintained as an ascites passage. Each mouse was implanted SC near the right flank with one million (1×10^6) of the LOX IMVI human melanoma cell from an in vivo passage using a 23 g needle. The day of tumor fragment implantation was designated as Day 0. Individual tumors of 90 animals grew to 126-198 mg in weight (126-198 mm^3 in size) on Day 6 after tumor implantation (Jul. 20, 2011), the day of treatment initiation. Those animals selected with tumors in the proper size range were assigned to nine treatment groups so that the mean tumor weights in all groups on Day 6 were as close to each other as possible (mean tumor weights being 165 or 166 mg, median tumor weights ranging from 162 to 176 mg).
(§1) CTO was administered to mice by exact individual animal's body weight on each day of treatment, with the injection volume being 0.1 mL/10 g body weight. temozolomide dosing formulations were administered to mice within 30 minutes of formulation by exact individual body weight on each day of treatment, with the injection volume being 0.2 mL/10 g body weight.
The study consisted of nine groups of ten mice per group. […]
The SC tumors were measured and the animals were weighed two times a week. Tumor volume was determined by the formula for an ellipsoid sphere: L×W^2/2=mm^3, where L and W refer to the larger and smaller perpendicular dimensions collected at each measurement. […]
Parameters Evaluated—Number of nonspecific deaths, number of complete tumor regressions, number of tumor-free survivors on Day 35, and the median time for the tumors to reach four tumor mass doublings were determined. […]

[2] = given in combination (CTO Q1Dx14, temozolomide Q4Dx3); MTD = dose without death and no more than 20% mean body weight loss
Source text: The purpose of the first experiment was to evaluate the tolerance of female athymic NCr-nu/nu mice to the combination treatment of 5-amino-1-(4-(4-chlorobenzoyl)-3,5-dichlorobenzyl)-1,2,3-triazole-4-carboxyamide orotate (CTO) and a cytotoxic chemotherapeutic agent selected from the group consisting of temozolomide, 5-FU, methotrexate, doxorubicin and daunorubicin.
Polyethylene glycol (PEG 400, MW 400) was purchased from Aldrich Chemistry. Deionized water was purchased from LabChem, Inc. Klucel (hydroxypropyl cellulose) was purchased from Aldrich. Saline (physiological saline solution, for animal use only) was purchased from Nova-Teck, Inc. Tween 80 (T80, polysorbate 80) was purchased from Fisher Scientific. CTO (MW 580.76) was stored at room temperature protected from light upon receipt. CTO was formulated once a week (on Days 1 and 8) at a concentration of 51.3 mg/mL in 40% PEG 400 in deionized water. Temozolomide® (temozolomide, Schering Co., 20 mg/capsule) was prepared on each day treatment by adding several drops of T80 to the powder, and then adding 0.3% Klucel in saline to yield a concentration of 4.5 mg/mL.
The study consisted of four groups of five mice per group for a total of 25 mice on Day 1. […]

[3] = system: human LOX IMVI melanoma xenografts; assay: Antitumor activity against SC-implanted human LOX IMVI melanoma xenografts (experiment TTI-6A); format: in vivo, mice
Source text: The purpose of the experiment TTI-6A was to evaluate the antitumor activity of CTO when administered in combination with temozolomide against subcutaneously (SC)-implanted human LOX IMVI melanoma xenografts in female, athymic NCr-nu/nu mice. Female six-week-old athymic NCr-nu/nu mice were purchased from Charles River Laboratories (Wilmington, Mass.). Human LOX IMVI melanoma cells were maintained as an ascites passage. […] The day of tumor fragment implantation was designated as Day 0.
as §1
The study consisted of nine groups of ten mice per group. Animals in Group 1 were treated with the CTO vehicle (40% PEG 400 in deionized water) on a Q1Dx14 schedule (Days 6-19) in combination with the temozolomide vehicle (0.3% Klucel in saline), which was administered on a Q4Dx3 schedule (Days 6, 10, and 14). Animals in Groups 2 and 3 were treated with CTO at doses of 513 and 342 mg/kg/dose, respectively, on a Q1Dx14 schedule. Animals in Groups 4 and 5 were treated with temozolomide at, doses of 90 and 60 mg/kg/dose, respectively, on a Q4Dx3 schedule. Animals in Groups 6 and 7 were treated with CTO on a Q1Dx14 schedule at doses of 513 and 342 mg/kg/dose, respectively, in combination with temozolomide which was administered at a dose of 90 mg/kg/dose on a Q4Dx3 schedule. Animals in Groups 8 and 9 were treated with CTO on a Q1Dx14 schedule at doses of 513 and 342 mg/kg/dose, respectively, in combination with temozolomide which was administered at a dose of 60 mg/kg/dose on a Q4Dx3 schedule.
The SC tumors were measured and the animals were weighed two times a week. Tumor volume was determined by the formula for an ellipsoid sphere: L×W^2/2=mm^3, where L and W refer to the larger and smaller perpendicular dimensions collected at each measurement. The experiment was terminated on Day 35.
Parameters Evaluated—Number of nonspecific deaths, number of complete tumor regressions, number of tumor-free survivors on Day 35, and the median time for the tumors to reach four tumor mass doublings were determined. Comparison of the median tumor weight in the treatment groups to the median tumor weight in the control group (T/C×100%) on Day 19 (the last day of treatment with CTO and the last day of data collection when mice in the control group were still alive) was used for an additional evaluation of the antitumor efficacy of the combination treatments. […] FIG. 1.

[4] = Group 4: temozolomide 90 mg/kg/dose oral Q4Dx3 alone
[5] = Group 5: temozolomide 60 mg/kg/dose oral Q4Dx3 alone

Molecule | maximum mean body weight loss [1, 4] | maximum mean body weight loss [1, 5] | maximum mean body weight loss ([1]; Groups 4 and 5: temozolomide 90 and 60 mg/kg/dose oral Q4Dx3 alone, both groups) | maximum tolerated dose (MTD) [2] | delay in the growth of the median tumor ([3]; Group 4: temozolomide 90 mg/kg/dose Q4Dx3 alone) | T/C value (median tumor weight treated/control x100%) on Day 19 [3, 4] | median time for the tumor to reach four tumor mass doublings [3, 4] | delay in the growth of the median tumor ([3]; Group 5: temozolomide 60 mg/kg/dose Q4Dx3 alone) | T/C value (median tumor weight treated/control x100%) on Day 19 [3, 5] | median time for the tumor to reach four tumor mass doublings [3, 5] | inhibition of the growth of the human LOX IMVI melanoma xenografts (in words) ([3]; CTO 513 or 342 mg/kg/dose oral for fourteen consecutive days) | median tumor growth delay ([3]; Group 2: CTO 513 mg/kg/dose Q1Dx14 alone) | T/C value (median tumor weight treated/control x100%) on Day 19 ([3]; Group 2: CTO 513 mg/kg/dose oral Q1Dx14 alone) | median tumor growth delay ([3]; Group 3: CTO 342 mg/kg/dose Q1Dx14 alone) | T/C value (median tumor weight treated/control x100%) on Day 19 ([3]; Group 3: CTO 342 mg/kg/dose oral Q1Dx14 alone)
Cn1nnc2c(C(N)=O)ncn2c1=O [temozolomide] | 7% | 7% | 1.6 to 1.8 g | > 90 mg/kg/dose | 8.5 days | 36% | 17.2 days | 3.6 days | 57% | 12.3 days | – | – | – | – | –
5-amino-1-(4-(4-chlorobenzoyl)-3,5-dichlorobenzyl)-1,2,3-triazole-4-carboxyamide orotate [CTO] | – | – | – | above 513 mg/kg/dose | – | – | – | – | – | – | measurable inhibition | 3.1 days | 65% | 1.6 days | 70%
